Columns and labels:
GP2D (KRAS G12D) cells = experiment: 2D cell viability assay (CellTiter-Glo); assay type: cell-based; conditions: 4 days
Summary of the method: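 GP2D (KRAS G12D) cells, 1000/well in RPMI + 10% FBS, were plated onto compound (1:3 DMSO series) and grown 4 days at 37 °C, 5% CO2 in 2D. CellTiter-Glo luminescence was read; EC50 is the concentration giving 50% signal decrease, from sigmoidal fit.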

GDP-loaded KRAS G12D = GDP-loaded KRAS G12D (Homo sapiens (Human), UniProt P01116, G12D); experiment: KRAS G12D (GDP) biochemical assay (TR-FRET probe displacement); assay type: binding; conditions: 2 hours
Summary of the method: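 Compound pre-incubated 30 min with GDP-loaded KRAS G12D in 50 mM Hepes pH 7.4, 150 mM NaCl, 5 mM MgCl2, 0.005% Tween-20, then Eu-streptavidin and TR-FRET probe added. After 2 h at room temperature, TR-FRET ratio read; IC50 is 50% ratio decrease, sigmoidal fit.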

AsPC-1 (KRAS G12D) cells = experiment: 3D cell viability assay (spheroids, CellTiter-Glo 3D); assay type: cell-based; conditions: AsPC-1 cells, 3D spheroids, 4 days
Description: Example C. 3D Cell Viability Assay
Compounds were tested in a 384-well format for their ability to inhibit the viability of AsPC-1 (KRAS G12D) cells in 3D assays. On day 0, 1000 cells/well (80 μL volume per well) in DMEM with 10% FBS, and Penicillin-Streptomycin-Glutamine were plated in 384-well Ultra-Low Attachment Spheroid Microplates (Corning, Catalog #3830) on the BioTEK EL406 liquid dispenser with a 5 μL dispensing cassette (BioTek 7170011). The plates were incubated at 37° C., 5% CO2 for 3 days to allow spheroid formation. On day 3, compounds were serially diluted (1:3) in DMSO. The Biomek FX was used to add 400 nL of test molecule per well. The plates were incubated at 37° C., 5% CO2 for 4 days before addition of CellTiter-Glo 3D (Promega, Catalog #9683) reagent and measurement of luminescence signal. EC50 values were defined as the compound concentration that causes a 50% decrease in luminescence signal and were calculated using a sigmoidal dose-response model to generate curve fits.

| Compound | EC50 (GP2D (KRAS G12D) cells; GP2d, 96 h) [nM] | IC50 (GDP-loaded KRAS G12D) [nM] | EC50 (AsPC-1 (KRAS G12D) cells; Homo sapiens, ASPC1, 96 h) [nM] | EC50 (GP2D (KRAS G12D) cells) [nM] | EC50 (AsPC-1 (KRAS G12D) cells) [nM] |
| --- | --- | --- | --- | --- | --- |
| C#Cc1c(F)ccc2cc(O)cc(-c3nc4c5c(nc(OC[C@@]67CCCN6[C@H](COC(C(F)(F)F)(C(F)(F)F)C(F)(F)F)CC7)nc5c3F)N3C[C@H]5CC[C@H](N5)[C@H]3CCC4)c12 [Example 181, 5-ethynyl-6-fluoro-4-((6aR,7S,10R)-1-fluoro-13-(((3S,7aS)-3-(((1,1,1,3,3,3-hexafluoro-2-(trifluoromethyl)propan-2-yl)oxy)methyl)tetrahydro-1H-pyrrolizin-7a(5H)-yl)methoxy)-5,6,6a,7,8,9,10,11-octahydro-4H-3,11a,12,14,15-pentaaza-7,10-methanocyclohepta[4,5]cycloocta[1,2,3-de]naphthalen-2-yl)naphthalen-2-ol] | 0.3 | 0.5 | 6.9 |  |  |
| C#Cc1c(F)ccc2cc(O)cc(-c3nc4c5c(nc(OC[C@@]67CCCN6C[C@H](F)C7)nc5c3F)N3C[C@H]5CC[C@H](N5)[C@H]3CCC4)c12 [Example 75, 5-ethynyl-6-fluoro-4-((6aR,7S,10R)-1-fluoro-13-(((2R,7aS)-2-fluorotetrahydro-1H-pyrrolizin-7a(5H)-yl)methoxy)-5,6,6a,7,8,9,10,11-octahydro-4H-3,11a,12,14,15-pentaaza-7,10-methanocyclohepta[4,5]cycloocta[1,2,3-de]naphthalen-2-yl)naphthalen-2-ol] | 0.17 | 0.06 | 0.5 |  |  |
| 4-((5S,5aS,6S,9R)-5-ethyl-1-fluoro-12-(((2R,7aS)-2-fluorotetrahydro-1H-pyrrolizin-7a(5H)-yl)methoxy)-5a,6,7,8,9,10-hexahydro-5H-4-oxa-3,10a,11,13,14-pentaaza-6,9-methanonaphtho[1,8-ab]heptalen-2-yl)-5-ethynyl-6-fluoronaphthalen-2-ol [Example 80] |  | 0.1 |  | 2.2 | 2 |
| C#Cc1c(F)ccc2cc(O)cc(-c3nc4c5c(nc(OC[C@@]67CCCN6[C@H](Cn6ccnn6)CC7)nc5c3F)N3C[C@H]5CC[C@H](N5)[C@H]3CO4)c12 [Example 49, 4-((5aS,6S,9R)-12-(((3S,7aS)-3-((1H-1,2,3-triazol-1-yl)methyl)tetrahydro-1H-pyrrolizin-7a(5H)-yl)methoxy)-1-fluoro-5a,6,7,8,9,10-hexahydro-5H-4-oxa-3,10a,11,13,14-pentaaza-6,9-methanonaphtho[1,8-ab]heptalen-2-yl)-5-ethynyl-6-fluoronaphthalen-2-ol] | 37 | 0.2 | 140 |  |  |
| Oc1cc(-c2nc3c4c(nc(OC[C@@]56CCCN5C[C@H](F)C6)nc4c2F)N2C[C@H]4CC[C@H](N4)[C@H]2CO3)c2c(Cl)cccc2c1 [Example 17, 5-chloro-4-((5aS,6S,9R)-1-fluoro-12-(((2R,7aS)-2-fluorotetrahydro-1H-pyrrolizin-7a(5H)-yl)methoxy)-5a,6,7,8,9,10-hexahydro-5H-4-oxa-3,10a,11,13,14-pentaaza-6,9-methanonaphtho[1,8-ab]heptalen-2-yl)naphthalen-2-ol] | 49 | 0.4 | 180 |  |  |
| C#Cc1c(F)ccc2cccc(-c3nc4c5c(nc(OC[C@@]67CCCN6C[C@H](F)C7)nc5c3F)N3C[C@H]5CC[C@H](N5)[C@H]3C[C@@H]4CC)c12 [Example 175, (4S,5aR,6S,9R)-4-ethyl-2-(8-ethynyl-7-fluoronaphthalen-1-yl)-1-fluoro-12-(((2R,7aS)-2-fluorotetrahydro-1H-pyrrolizin-7a(5H)-yl)methoxy)-4,5,5a,6,7,8,9,10-octahydro-3,10a,11,13,14-pentaaza-6,9-methanonaphtho[1,8-ab]heptalene] | 11.9 | 0.5 | 150 |  |  |
| C#Cc1c(F)ccc2cc(O)cc(-c3nc4c5c(nc(OC[C@@]67CCCN6C[C@H](F)C7)nc5c3F)N3C[C@H]5CC[C@H](N5)[C@@H]3CCC4)c12 [Example 132, 5-ethynyl-6-fluoro-4-((6aS,7S,10R)-1-fluoro-13-(((2R,7aS)-2-fluorotetrahydro-1H-pyrrolizin-7a(5H)-yl)methoxy)-5,6,6a,7,8,9,10,11-octahydro-4H-3,11a,12,14,15-pentaaza-7,10-methanocyclohepta[4,5]cycloocta[1,2,3-de]naphthalen-2-yl)naphthalen-2-ol] | 2.2 | 0.2 | 50 |  |  |
| C#Cc1c(F)ccc2cc(O)cc(-c3nc4c5c(nc(OC[C@]67CC(=C)CN6C[C@H](F)C7)nc5c3F)N3C[C@H]5CC[C@H](N5)[C@H]3CO4)c12 [Example 13, 5-ethynyl-6-fluoro-4-((5aS,6S,9R)-1-fluoro-12-(((2R,7aR)-2-fluoro-6-methylenetetrahydro-1H-pyrrolizin-7a(5H)-yl)methoxy)-5a,6,7,8,9,10-hexahydro-5H-4-oxa-3,10a,11,13,14-pentaaza-6,9-methanonaphtho[1,8-ab]heptalen-2-yl)naphthalen-2-ol] | 2 | 0.4 | 17 |  |  |
| C#Cc1c(F)ccc2cccc(-c3nc4c5c(nc(OC[C@@]67CCCN6C[C@H](F)C7)nc5c3F)N3C[C@H]5CC[C@H](N5)[C@H]3[C@H](CC)O4)c12 [Example 169, (5S,5aS,6S,9R)-5-ethyl-2-(8-ethynyl-7-fluoronaphthalen-1-yl)-1-fluoro-12-(((2R,7aS)-2-fluorotetrahydro-1H-pyrrolizin-7a(5H)-yl)methoxy)-5a,6,7,8,9,10-hexahydro-5H-4-oxa-3,10a,11,13,14-pentaaza-6,9-methanonaphtho[1,8-ab]heptalene] | 26.5 | 0.8 | 190 |  |  |
| C#Cc1c(F)ccc2cc(O)cc(-c3nc4c5c(nc(OC[C@@]67CCCN6[C@H](COC(=O)N6CCCCCC6)CC7)nc5c3F)N3C[C@H]5CC[C@H](N5)[C@H]3CO4)c12 [Example 38, ((3S,7aS)-7a-((((5aS,6S,9R)-2-(8-ethynyl-7-fluoro-3-hydroxynaphthalen-1-yl)-1-fluoro-5a,6,7,8,9,10-hexahydro-5H-4-oxa-3,10a,11,13,14-pentaaza-6,9-methanonaphtho[1,8-ab]heptalen-12-yl)oxy)methyl)hexahydro-1H-pyrrolizin-3-yl)methyl azepane-1-carboxylate] | 28 | 0.3 | 47 |  |  |
| C#Cc1c(F)ccc2cc(O)cc(-c3nc4c5c(nc(OC[C@@]67CCCN6[C@H](COc6ncccc6OC(F)(F)F)CC7)nc5c3F)N3C[C@H]5CC[C@H](N5)[C@H]3CC4)c12 [Example 160, 5-ethynyl-6-fluoro-4-((5aR,6S,9R)-1-fluoro-12-(((3S,7aS)-3-(((3-(trifluoromethoxy)pyridin-2-yl)oxy)methyl)tetrahydro-1H-pyrrolizin-7a(5H)-yl)methoxy)-4,5,5a,6,7,8,9,10-octahydro-3,10a,11,13,14-pentaaza-6,9-methanonaphtho[1,8-ab]heptalen-2-yl)naphthalen-2-ol] | 1.4 | 0.2 | 16 |  |  |
| Oc1cc(-c2nc3c4c(nc(OC[C@@]56CCCN5C[C@H](F)C6)nc4c2F)N2C[C@H]4CC[C@H](N4)[C@H]2CC3)c2ccccc2c1 [Example 24, 4-((5aR,6S,9R)-1-fluoro-12-(((2R,7aS)-2-fluorotetrahydro-1H-pyrrolizin-7a(5H)-yl)methoxy)-4,5,5a,6,7,8,9,10-octahydro-3,10a,11,13,14-pentaaza-6,9-methanonaphtho[1,8-ab]heptalen-2-yl)naphthalen-2-ol] | 17 | 1 | 190 |  |  |
| C#Cc1c(F)ccc2cccc(-c3nc4c5c(nc(OC[C@@]67CCCN6C[C@H](F)C7)nc5c3F)N3C[C@H]5CC[C@H](N5)[C@H]3C[C@H]4C)c12 [Example 95, (4R,5aS,6S,9R)-2-(8-ethynyl-7-fluoronaphthalen-1-yl)-1-fluoro-12-(((2R,7aS)-2-fluorotetrahydro-11H-pyrrolizin-7a(5H)-yl)methoxy)-4-methyl-4,5,5a,6,7,8,9,10-octahydro-3,10a,11,13,14-pentaaza-6,9-methanonaphtho[1,8-ab]heptalene] | 31.9 | 0.6 | 200 |  |  |
| C#Cc1c(F)c(F)cc2cc(O)cc(-c3nc4c5c(nc(OC[C@@]67CCCN6C[C@H](F)C7)nc5c3F)N3C[C@H]5CC[C@H](N5)[C@H]3CO4)c12 [Example 30, 5-ethynyl-6,7-difluoro-4-((5aS,6S,9R)-1-fluoro-12-(((2R,7aS)-2-fluorotetrahydro-1H-pyrrolizin-7a(5H)-yl)methoxy)-5a,6,7,8,9,10-hexahydro-5H-4-oxa-3,10a,11,13,14-pentaaza-6,9-methanonaphtho[1,8-ab]heptalen-2-yl)naphthalen-2-ol] | 11 | 0.2 | 260 |  |  |

From patent publication US20230339981A1, “KRAS G12D MODULATING COMPOUNDS” (priority 2022, published 2023)
